Values quoted from earlier work in US20060019313A1, “Method for detecting molecular surface interactions” (Biacore AB, priority 2004, published 2006).

System: Anti-myoglobin IgG
Settings: stated as known; IgG used as reference

CCC(Cc1c(I)cc(I)c(O)c1I)C(=O)O (stereo not drawn) [iophenoxic acid, α-ethyl-3-hydroxy-2,4,6-triiodohydro-cinnamic acid]
binding to IgG: not to IgG
